Results from patent publication US7507760B2, “N-type calcium channel blockers” (Neuromed Pharmaceuticals Ltd., priority 2004, dated 2009).
Like-named read-outs stand apart in the source and are kept apart here.

Key:
[1] = target: T1, rat brain N-type calcium channel subunits (α1B+α2δ+β1b cDNA subunits) (Rattus norvegicus, UniProt Q02294); assay: N-type calcium channel block, whole cell patch clamp in HEK 293 cells; type: cell-based; settings: holding potential −80 mV to +10 mV, 5 mM BaCl2
T1 construct: expressed in transfected cells; host or cells: HEK 293
Source text: (§1) Normalized dose-response curves were fit (Sigmaplot 4.0, SPSS Inc., Chicago, Ill.) by the Hill equation to determine IC50 values. Steady-state inactivation curves were plotted as the normalized test pulse amplitude following 5 s inactivating prepulses at +10 mV increments. Inactivation curves were fit (Sigmaplot 4.0) with the Boltzman equation, Ipeak (normalized)=1/(1+exp((V-Vh)z/25.6)), where V and Vh are the conditioning and half inactivation potentials, respectively, and z is the slope factor.
The methods of Example 11 were followed with slight modifications as will be apparent from the description below.
N-type calcium channel blocking activity was assayed in human embryonic kidney cells, HEK 293, stably transfected with the rat brain N-type calcium channel subunits (α1B+α2δ+β1b cDNA subunits). Briefly, cells were cultured in Dulbecco's modified eagle medium (DMEM) supplemented with 10% fetal bovine serum, 200 U/ml penicillin and 0.2 mg/ml streptomycin at 37° C. with 5% CO2. At 85% confluency, cells were split with 0.25% trypsin/1 mM EDTA and plated at 10% confluency on glass coverslips. At 12 hours the medium was. replaced and the cells transfected using a standard calcium phosphate protocol and the appropriate calcium channel cDNAs. Fresh DMEM was supplied and the cells transferred to 28° C./5% CO2. Cells were incubated for 1 to 2 days to whole cell recording.
Whole cell patch clamp experiments were performed using an Axopatch 200B amplifier (Axon Instruments, Burlingame, Calif.) linked to a personal computer equipped with pCLAMP software. The external and internal recording solutions contained, respectively, 5 mM BaCl2, 10 mM MgCl2, 10 mM HEPES, 40 mM TEACl, 10 mM glucose, 87.5 mM CsCl (pH 7.2) and 108 mM CsMS, 4 mM MgCl2, 9 mM EGTA, 9 mM HEPES (pH 7.2). Currents were typically elicited from a holding potential of −80 mV to +10 mV using Clampex software (Axon Instruments). Typically, currents were first elicited with low frequency stimulation (0.067 Hz) and allowed to stabilize prior to application of the compounds. The compounds were then applied during the low frequency pulse trains for two to three minutes to assess tonic block, and subsequently the pulse frequency was increased to 0.2 Hz to assess frequency dependent block. Data were analyzed using Clampfit (Axon Instruments) and SigmaPlot 4.0 (Jandel Scientific).

[2] = target: T2, human α1G T-type channels (Homo sapiens, UniProt O43497); assay: Block of α1G T-type channels, whole-cell patch clamp in HEK cells; type: cell-based; settings: test pulse −40 mV
T2 construct: expressed in transfected cells
Protocol: Standard patch-clamp techniques were employed to identify blockers of T-type currents. Briefly, previously described HEK cell lines stably expressing human α1G T-type channels were used for all the recordings (passage #: 4-20, 37° C., 5% CO2). To obtain T-type currents, plastic dishes containing semi-confluent cells were positioned on the stage of a ZEISS AXIOVERT S100 microscope after replacing the culture medium with external solution (Table 3). Whole-cell patches were obtained using pipettes (borosilicate glass with filament, O.D.: 1.5 mm, I.D.: 0.86 mm, 10 cm length), fabricated on a SUTTER P-97 puller with resistance values of ˜5 MΩ (Table 4 ).
T-type currents were reliably obtained by using two voltage protocols: “non-inactivating”, and “inactivation”. In the non-inactivating protocol, the holding potential is set at −110 mV and with a pre-pulse at −100 mV for 1 second prior to the test pulse at −40 mV for 50 ms. In the inactivation protocol, the pre-pulse is at approximately −85 mV for 1 second, which inactivates about ^15% of the T-type channels.
Test compounds were dissolved in external solution, 0.1-0.01% DMSO. After ˜10 min rest, they were applied by gravity close to the cell using a WPI microfil tubing. The “non-inactivated” pre-pulse was used to examine the resting block of a compound. The “inactivated” protocol was employed to study voltage-dependent block. However, the initial data shown below were mainly obtained using the non-inactivated protocol only. IC50 values are shown for various compounds of the invention in Table 5.

[3] = target: T3, P/Q-type channels (α1A+α2δ+β1b cDNA subunits) (Homo sapiens, UniProt O00555); assay: Selectivity for N-type over P/Q-type channels, whole cell patch recordings in HEK 293 cells; type: cell-based
T3 construct: expressed in transfected cells; host or cells: HEK 293 (human embryonic kidney cells)
Protocol: (§2) Calcium channel blocking activity was measured using whole cell patch recordings on human embryonic kidney cells transiently expressing rat α1B+α2δ+β1b channels (N-type channels) with 5 mM barium as a charge carrier. Channel block was also measured in P/Q-type channels (α1A+α2δ+β1b cDNA subunits) and L-type channels (α1C+α2δ+β1b cDNA subunits).
(§3) HEK 293 Host cells (ATCC# CRL 1573) were grown in standard DMEM medium supplemented with 2 mM glutamine and 10% fetal bovine serum. HEK 293 cells were transfected by a standard calcium-phosphate-DNA coprecipitation method using the rat α1B+β1b+α2δ N-type calcium channel subunits in a vertebrate expression vector (for example, see Current Protocols in Molecular Biology).
(§4) After an incubation period of 24 to 72 hours, the culture medium was removed and replaced with external recording solution (see below). Whole cell patch clamp experiments were performed using an Axopatch 200B amplifier (Axon Instruments, Burlingame, Calif.) linked to an IBM compatible personal computer equipped with pCLAMP software. Borosilicate glass patch pipettes (Sutter Instrument Co., Novato, Calif.) were polished (Microforge, Narishige, Japan) to a resistance of about 4 MΩ when filled with cesium methanesulfonate internal solution (composition in MM: 109 CsCH3 SO4, 4 MgCl2, 9 EGTA, 9 HEPES, pH 7.2). Cells were bathed in 5 mM Ba^++ (in mM: 5 BaCl2, 1 MgCl2, 10 HEPES, 40 tetraethylammonium chloride, 10 glucose, 87.5 CsCl pH 7.2). Current data shown were elicited by a train of 100 ms test pulses at 0.066 Hz from −100 mV and/or −80 mV to various potentials (min. −20 mV, max. +30 mV). Drugs were perfused directly into the vicinity of the cells, using a microperfusion system.
as §1
(§5) The same protocol was followed for cell lines expressing P/Q-type channels and L-type channels.

[4] = target: T4, L-type channels (α1C+α2δ+β1b cDNA subunits) (Homo sapiens, UniProt Q13936); assay: Selectivity for N-type over L-type channels, whole cell patch recordings in HEK 293 cells; type: cell-based
T4 construct: expressed in transfected cells; host or cells: HEK 293 (human embryonic kidney cells)
Protocol: as §2, §3, §4, §1, §5

[5] = tested on: rat formalin model (paw flinches); assay: Formalin-induced pain model; type: in vivo; settings: 30 mg/kg IP, 10 minutes prior to formalin, saline control=100%
Protocol: […] The compounds were reconstituted to stock solutions of approximately 10 mg/ml in propylene glycol. Eight Holtsman male rats of 275-375 g size were randomly selected per test article.
The following study groups in Table 6 were used, with test article, vehicle control (propylene glycol) and saline delivered intraperitoneally (IP):
Prior to initiation of drug delivery, baseline behavioral and testing data were taken.
On the morning of testing, a small metal band (0.5 g) was loosely placed around the right hind paw. The rat was placed in a cylindrical Plexiglas chamber for adaptation a minimum of 30 minutes. Test Article or Vehicle Control Article was administered 10 minutes prior to formalin injection (50 μl of 5% formalin) into the dorsal surface of the right hindpaw of the rat. The animal was then placed into the chamber of the automated formalin apparatus where movement of the formalin injected paw was monitored and the number of paw flinches tallied by minute over the next 60 minutes (Malmberg, A. B., supra).
Results are presented as Maximum Possible Effect±SEM, where saline control=100% (Table 7)

[6] = tested on: T-type over L-type channels; settings: cited from earlier work
[7] = frequency dependent block, pulse frequency 0.2 Hz, read-out: IC50 at 0.2 Hz
[8] = tonic block, low frequency stimulation 0.067 Hz, read-out: IC50 at 0.067 Hz
[9] = −80 mV (inactivation protocol), read-out: IC50 at −80 mV
[10] = −100 mV (non-inactivating protocol), read-out: IC50 at −100 mV

T2 sequence (O43497 whole entry): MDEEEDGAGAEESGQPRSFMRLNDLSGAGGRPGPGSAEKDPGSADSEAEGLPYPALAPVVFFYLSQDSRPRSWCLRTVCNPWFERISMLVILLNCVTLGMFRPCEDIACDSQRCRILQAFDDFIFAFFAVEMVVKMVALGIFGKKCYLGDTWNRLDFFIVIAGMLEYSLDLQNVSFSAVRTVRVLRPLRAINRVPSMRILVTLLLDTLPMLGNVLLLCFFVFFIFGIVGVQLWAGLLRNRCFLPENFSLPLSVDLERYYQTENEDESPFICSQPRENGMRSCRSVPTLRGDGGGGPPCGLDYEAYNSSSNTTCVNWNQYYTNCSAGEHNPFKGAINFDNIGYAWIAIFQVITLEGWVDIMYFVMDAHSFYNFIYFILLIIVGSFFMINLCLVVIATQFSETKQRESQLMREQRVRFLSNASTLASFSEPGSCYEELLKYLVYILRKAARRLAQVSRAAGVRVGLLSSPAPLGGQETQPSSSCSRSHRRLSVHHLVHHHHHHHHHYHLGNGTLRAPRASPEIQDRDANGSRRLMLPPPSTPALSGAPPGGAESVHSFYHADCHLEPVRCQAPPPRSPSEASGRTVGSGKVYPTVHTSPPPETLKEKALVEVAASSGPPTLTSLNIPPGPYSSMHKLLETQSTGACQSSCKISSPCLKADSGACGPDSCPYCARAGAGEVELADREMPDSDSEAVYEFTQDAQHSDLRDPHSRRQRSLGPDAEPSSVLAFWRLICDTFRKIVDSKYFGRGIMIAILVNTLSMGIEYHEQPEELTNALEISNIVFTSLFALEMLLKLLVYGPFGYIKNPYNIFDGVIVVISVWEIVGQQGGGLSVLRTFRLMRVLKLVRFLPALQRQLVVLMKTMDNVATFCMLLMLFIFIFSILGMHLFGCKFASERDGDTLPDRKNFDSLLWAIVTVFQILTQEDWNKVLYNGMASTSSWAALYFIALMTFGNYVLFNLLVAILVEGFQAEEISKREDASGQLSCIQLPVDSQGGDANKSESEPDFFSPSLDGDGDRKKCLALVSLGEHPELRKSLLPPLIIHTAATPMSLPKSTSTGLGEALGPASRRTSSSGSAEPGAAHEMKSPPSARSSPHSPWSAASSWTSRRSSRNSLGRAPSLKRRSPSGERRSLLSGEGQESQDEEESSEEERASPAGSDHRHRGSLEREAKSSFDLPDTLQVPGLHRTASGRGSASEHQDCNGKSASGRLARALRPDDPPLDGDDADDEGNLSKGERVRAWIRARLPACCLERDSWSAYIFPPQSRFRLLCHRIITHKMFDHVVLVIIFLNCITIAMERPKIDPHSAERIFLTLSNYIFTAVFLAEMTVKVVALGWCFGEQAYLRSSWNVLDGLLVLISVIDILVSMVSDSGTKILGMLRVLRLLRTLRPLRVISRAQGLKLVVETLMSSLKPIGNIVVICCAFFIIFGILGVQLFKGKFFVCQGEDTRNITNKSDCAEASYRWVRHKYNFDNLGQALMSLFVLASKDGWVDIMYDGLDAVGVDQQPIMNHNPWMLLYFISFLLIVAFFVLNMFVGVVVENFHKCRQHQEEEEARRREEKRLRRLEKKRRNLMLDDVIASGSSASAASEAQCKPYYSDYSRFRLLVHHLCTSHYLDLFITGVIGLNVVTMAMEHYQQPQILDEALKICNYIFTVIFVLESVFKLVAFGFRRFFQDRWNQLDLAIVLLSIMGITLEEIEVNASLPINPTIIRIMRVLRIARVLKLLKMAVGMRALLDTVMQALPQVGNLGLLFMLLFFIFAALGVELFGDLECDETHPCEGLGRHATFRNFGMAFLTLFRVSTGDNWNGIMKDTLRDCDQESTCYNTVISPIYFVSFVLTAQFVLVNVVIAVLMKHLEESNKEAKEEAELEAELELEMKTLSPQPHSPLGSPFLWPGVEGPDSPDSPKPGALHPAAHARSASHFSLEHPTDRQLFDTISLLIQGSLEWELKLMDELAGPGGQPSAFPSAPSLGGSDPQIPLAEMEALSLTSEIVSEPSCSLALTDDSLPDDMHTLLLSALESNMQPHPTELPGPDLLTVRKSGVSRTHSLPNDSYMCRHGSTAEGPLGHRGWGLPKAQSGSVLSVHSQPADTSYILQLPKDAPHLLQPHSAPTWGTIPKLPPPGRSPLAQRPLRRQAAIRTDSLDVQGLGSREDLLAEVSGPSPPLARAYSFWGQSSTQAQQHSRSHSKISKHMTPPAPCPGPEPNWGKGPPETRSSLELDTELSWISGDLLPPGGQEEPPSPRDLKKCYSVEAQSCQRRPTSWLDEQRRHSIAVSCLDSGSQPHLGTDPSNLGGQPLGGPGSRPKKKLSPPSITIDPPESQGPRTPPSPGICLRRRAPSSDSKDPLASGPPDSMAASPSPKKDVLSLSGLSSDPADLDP

IC50 [1, 7] | IC50 [1, 8] | IC50 [2, 9] | IC50 [2, 10] | selectivity for N-type over P/Q-type channels [3] | selectivity for N-type over L-type channels [4] | Molecule | Maximum Possible Effect ± SEM, Phase I [5] | Maximum Possible Effect ± SEM, Phase II [5] | Maximum Possible Effect ± SEM, Phase IIA [5] | selective for T-type over L-type channels [6]
62 nM | 93 nM | 390 nM | 230 nM | approximately 12 fold | greater than 5000 fold | COc1c(C(C)(C)C)cc(C(=O)N(C)[C@H]2CCN(C(=O)CCCCC(c3ccc(F)cc3)c3ccc(F)cc3)C2)cc1C(C)(C)C [Compound P4, (S)-N-{1-[6,6-Bis-(4-fluoro-phenyl)-hexanoyl]-pyrrolidin-3-yl}-3,5-di-tert-butyl-4-methoxy-N-methyl-benzamide] | 50 ± 10% | 51 ± 10% | 42 ± 13% | 
 |  |  |  |  |  | COCC(=O)O[C@]1(CCN(C)CCCc2nc3ccccc3[nH]2)CCc2cc(F)ccc2[C@@H]1C(C)C [Mibefradil] |  |  |  | 10-30 fold
32 nM | 67 nM | 51 nM | 117 nM | approximately 9 fold | greater than 1000 fold | (R)-6,6-Bis-(4-fluoro-phenyl)-hexanoic acid[1-(3,5-di-tert-butyl-4-methoxy-benzoyl)-pyrrolidin-3-yl]-methyl-amide [Compound P2] | 70 ± 8% | 82 ± 9% | 71 ± 12% | 
29 nM | 45 nM | 13 nM | 73 nM | approximately 31 fold | greater than 2000 fold | (S)-6,6-Bis-(4-fluoro-phenyl)-hexanoic acid[1-(3,5-di-tert-butyl-4-methoxy-benzoyl)-pyrrolidin-3-yl]-methyl-amide [Compound P5] | 88 ± 13% | 62 ± 4% | 47 ± 5% | 
